Experimental data reported in patent publication US20240368122A1, “JAK2 INHIBITORS AND METHODS OF USE THEREOF” (RELAY THERAPEUTICS, INC., priority 2021, published 2024).
Like-named read-outs stand apart in the source and are kept apart here.

Columns and labels:
[1] = biological target: T1, JAK2 JH2 WT (V536-D812) [W659A, W777A, F794H solubilizing mutations] (Homo sapiens, UniProt O60674, F794H/W659A/W777A); experiment: Surface Plasmon Resonance (SPR) binding assay, JAK2 JH2 domain
T1 construct: **JAK2 JH2 WT (V536-D812) [W659A, W777A, F794H solubilizing mutations]; C-thrombin-avi-His6; thrombin cleavage site (C); His6 (C); purchased Biortus
T1 sequence (O60674 536-812 W659A/W777A/F794H): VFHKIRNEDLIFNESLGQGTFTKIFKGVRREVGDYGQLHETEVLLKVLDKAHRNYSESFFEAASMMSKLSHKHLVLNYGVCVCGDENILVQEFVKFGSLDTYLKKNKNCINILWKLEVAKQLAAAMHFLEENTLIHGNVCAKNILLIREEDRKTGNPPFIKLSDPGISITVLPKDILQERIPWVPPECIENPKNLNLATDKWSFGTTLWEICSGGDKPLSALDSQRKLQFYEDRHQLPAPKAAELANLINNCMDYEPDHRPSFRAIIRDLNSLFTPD
Procedure, shortened: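 Kinetics came from 1:1 fits of single-cycle runs at 20 °C: four 3-fold dilutions from 5 uM for JH1 or 500 nM for JH2, 60 s association, and 300 s or 1200 s dissociation respectively. Protein was freshly captured per compound in the presence of 10 uM stabilizer compound, with running buffer of pH 7.5 HEPES/NaCl/glycerol/DTT plus 2% DMSO.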

[2] = tested on: TF1 JAK2 V617F STAT3 reporter; experiment: Cellular TF1 STAT3 assay (luciferase reporter), JAK2 V617F; assay type: cell-based; conditions: read-out: Cell PD-TF1 JAK2 V617F STAT3 (IC50)
Procedure, shortened: (§1)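 Measured in TF1 cells with mutant JAK2 V617F and STAT-responsive luciferase: 18-20 h compound exposure at 37 °C, then ONE-glo luminescence.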

[3] = tested on: TF1 JAK2 V617F STAT5 reporter; experiment: Cellular TF1 STAT5 assay (luciferase reporter), JAK2 V617F; assay type: cell-based; conditions: read-out: Cell PD TF1 V617F STAT5 (IC50)
Procedure, shortened: as §1

JAK2 JH1 WT (T842-G1132) = biological target: T2, JAK2 JH1 WT (T842-G1132) (Homo sapiens, UniProt O60674); experiment: Surface Plasmon Resonance (SPR) binding assay, JAK2 JH1 domain
T2 construct: *JAK2 JH1 WT (T842-G1132) N-His60-avi-TEV; His6 (N); TEV cleavage site (N); purchased Biortus
T2 sequence (O60674 842-1132): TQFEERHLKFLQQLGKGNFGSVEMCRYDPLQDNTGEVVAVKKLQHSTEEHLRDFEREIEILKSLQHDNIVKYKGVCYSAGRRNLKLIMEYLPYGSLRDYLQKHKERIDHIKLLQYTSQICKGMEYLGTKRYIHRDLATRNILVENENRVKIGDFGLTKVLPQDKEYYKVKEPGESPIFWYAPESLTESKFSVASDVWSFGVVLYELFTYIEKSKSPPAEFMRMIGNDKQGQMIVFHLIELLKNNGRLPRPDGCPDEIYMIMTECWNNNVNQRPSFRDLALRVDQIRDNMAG
Procedure: Selected compounds of the present disclosure were tested in a Surface Plasmon Resonance (SPR) Assay to measure their binding kinetics and affinity for proteins of interest.
Prepare buffer: 50 mM HEPES pH 7.5, 150 mM NaCl, 0.05% (v/v) Tween, and 10% (v/v) glycerol were combined and pH was adjusted to 7.5, then filtered. 5 mM DTT, was added, and buffer without DMSO was reserved for compound resuspension. 2% (v/v) DMSO was added for assay buffer, and separately 1% DMSO was used to make buffer for resuspending compounds.
Prepare compounds: Using a Bravo liquid handler, 99 μL of 1% (v/v) DMSO assay buffer was added to 1 μL compounds in DMSO.
Run 8K Method: Biotin CAPture (CAP) chip surface was regenerated prior to run by: Inserting CAP chip into Biacore 8K, prime machine with assay buffer with 2% (v/v) DMSO; Setting instrument temperature to 20° C.; Conditioning surface with NaOH/GdnHCl reagents from CAP chip kit (60 seconds, 10 μL/min); and Capturing oligo-Streptavidin (SA) reagent from CAP kit (600 seconds, 1 μL/min), expected capture ˜2500 RU. JAK2 JH1 or JH2 protein was immobilized by preparing a sample of 0.5 uM JH1 or 0.4 uM JH2 protein diluted in assay buffer without DMSO and supplemented with 10 uM of a selected compound of the invention as a stabilizer (370 seconds, 5 uL/min), expected capture ˜1000 RU. Remaining biotin sites on SA were blocked with 1 uM biotin (30 seconds, 20 uL/min), then equilibrated for 1800 seconds at 100 uL/min. Compounds being assayed were run in single cycle kinetics: 4 doses with a top concentration of 5 uM (JH1) or 500 nM (JH2), dilution factor of 3, at 20° C., for a contact time of 60 seconds, and a dissociation time of 300 seconds (JH1) or 1200 seconds (JH2), at a flow rate of 30 uL/min. The surface was completely regenerated after each compound is run, and JH1 or JH2 protein was immobilized fresh prior to each new compound. Data were fitted kinetically with 1:1 binding model using Biacore Insight Evaluation Software.

[4] = Homo sapiens, TF-1, TF1 cells, JAK2 V617F

Compound | Kd ([1]; SPR, JAK2 JH2 domain) | IC50 ([2]; TF1 JAK2 V617F) | IC50 ([3]; TF1 JAK2 V617F) | Kd (JAK2 JH1 WT (T842-G1132); SPR, JAK2 JH1 domain) | Kd [1] | IC50 [2, 4] | IC50 [3, 4] | Kd (JAK2 JH1 WT (T842-G1132))
CNC(=O)c1nnc(NC(=O)C2CC2)cc1Nc1cccc(-c2cnn(C3CN(Cc4cccc(Cl)n4)C3)c2)c1OC [Compound 143] | 0.01 to 10 nM | 50 to 500 nM | 50 to 500 nM | 5000 to 100000 nM |  |  |  | 
CNC(=O)c1nnc(NC(=O)C2CC2)cc1Nc1cccc(-c2ncc(NC(=O)Cc3cccn(C)c3=O)cn2)c1OC [Compound 6] | 0.01 to 10 nM | 5000 to 100000 nM | 5000 to 100000 nM | 500 to 5000 nM |  |  |  | 
CNC(=O)c1nnc(NC(=O)C2CC2)cc1Nc1cccc(-c2cnc(C(=O)N(C)Cc3ccn(C)n3)c(C#N)c2)c1OC [Compound 92] | 0.01 to 10 nM | 500 to 5000 nM | 500 to 5000 nM | 5000 to 100000 nM |  |  |  | 
CNC(=O)c1nnc(NC(=O)C2CC2)cc1Nc1cccc(-c2cnn(C3CN(Cc4ccn(C)n4)C3)c2)c1OC [Compound 41] | 0.01 to 10 nM | 50 to 500 nM | 50 to 500 nM | 500 to 5000 nM |  |  |  | 
CNC(=O)c1nnc(NC(=O)C2CC2)cc1Nc1cccc(-c2ccc(C(=O)NCc3cccn(C)c3=O)nc2)c1OC [Compound 4] | 0.01 to 10 nM | 500 to 5000 nM | 500 to 5000 nM | 5000 to 100000 nM |  |  |  | 
CNC(=O)c1nnc(NC(=O)C2CC2)cc1Nc1cccc(-c2ccc(C(=O)N(Cc3cc(C#N)ccn3)OC)nc2)c1OC [Compound 159] | 0.01 to 10 nM | 50 to 500 nM | 50 to 500 nM | 5000 to 100000 nM |  |  |  | 
CNC(=O)c1nnc(NC(=O)C2CC2)cc1Nc1ccc(C)c(-c2ccc(C(=O)N(C)Cc3ccn(C)n3)nc2)c1OC [Compound 34] | 0.01 to 10 nM | 50 to 500 nM | 50 to 500 nM | 5000 to 100000 nM |  |  |  | 
CNC(=O)c1nnc(NC(=O)C2CC2)cc1Nc1cccc(-c2ccc(C(=O)N(C)Cc3ccn(C)n3)c(C#N)c2)c1OC [Compound 119] | 0.01 to 10 nM | 500 to 5000 nM | 500 to 5000 nM | 5000 to 100000 nM |  |  |  | 
CNC(=O)c1nnc(NC(=O)C2CC2)cc1Nc1cccc(-c2ccc(C(=O)N(C)Cc3cccc(C#N)n3)nc2)c1OC [Compound 135] | 0.01 to 10 nM | 50 to 500 nM | 50 to 500 nM | 5000 to 100000 nM |  |  |  | 
CNC(=O)c1nnc(NC(=O)C2CC2)cc1Nc1cccc(-c2cn(C3CN(Cc4cccc(C)n4)C3)nn2)c1OC [Compound 151] | 0.01 to 10 nM | 50 to 500 nM | 50 to 500 nM | 500 to 5000 nM |  |  |  | 
CNC(=O)c1nnc(NC(=O)C2CC2)cc1Nc1cccc(-c2ccc(C(=O)N(C)Cc3ccn(C)n3)nc2)c1OC [Compound 26] | 0.01 to 10 nM | 50 to 500 nM | 50 to 500 nM | 5000 to 100000 nM |  |  |  | 
CNC(=O)c1nnc(NC(=O)C2CC2)cc1Nc1ccc(C)c(-c2cnc(C(=O)N(C)Cc3cc(C#N)ccn3)c(F)c2)c1OC [Compound 42] | 0.01 to 10 nM | 50 to 500 nM | 50 to 500 nM | 5000 to 100000 nM |  |  |  | 
CNC(=O)c1nnc(NC(=O)C2CC2)cc1Nc1ccc(C)c(-c2cnc(C(=O)N(C)Cc3ccccn3)c(F)c2)c1OC [Compound 43] | 0.01 to 10 nM | 500 to 5000 nM | 500 to 5000 nM | 5000 to 100000 nM |  |  |  | 
CNC(=O)c1nnc(NC(=O)C2CC2)cc1Nc1cccc(-c2ccc(C(=O)N(C)Cc3cc(C(F)F)ccn3)nc2)c1OC [Compound 158] | 0.01 to 10 nM | 50 to 500 nM | 50 to 500 nM | 5000 to 100000 nM |  |  |  | 
CNC(=O)c1nnc(NC(=O)C2CC2)cc1Nc1cccc(-c2cnc(C(=O)N(C)Cc3cccnn3)c(F)c2)c1OC [Compound 48] | 0.01 to 10 nM | 500 to 5000 nM | 500 to 5000 nM | 5000 to 100000 nM |  |  |  | 

More lines, now with the values ahead:

Kd ([1]; SPR, JAK2 JH2 domain) | IC50 ([2]; TF1 JAK2 V617F) | IC50 ([3]; TF1 JAK2 V617F) | Kd (JAK2 JH1 WT (T842-G1132); SPR, JAK2 JH1 domain) | Kd [1] | IC50 [2, 4] | IC50 [3, 4] | Kd (JAK2 JH1 WT (T842-G1132)) | Compound
0.01 to 10 nM | 500 to 5000 nM | 500 to 5000 nM | 5000 to 100000 nM |  |  |  |  | CNC(=O)c1nnc(NC(=O)C2CC2)cc1Nc1cccc(-c2ccc(C(=O)N(C)Cc3cc(C#N)ccn3)cn2)c1OC [Compound 55]
0.01 to 10 nM | 50 to 500 nM | 50 to 500 nM | 500 to 5000 nM |  |  |  |  | C#Cc1cccc(CN2CC(n3cc(-c4cccc(Nc5cc(NC(=O)C6CC6)nnc5C(=O)NC)c4OC)cn3)C2)n1 [Compound 152]
0.01 to 10 nM | 500 to 5000 nM | 500 to 5000 nM | 5000 to 100000 nM |  |  |  |  | CNC(=O)c1nnc(NC(=O)C2CC2)cc1Nc1cccc(-c2ccc(C(=O)NCc3cccn(C)c3=O)c(C)c2)c1OC [Compound 10]
0.01 to 10 nM | 500 to 5000 nM | 5000 to 100000 nM | 5000 to 100000 nM |  |  |  |  | CNC(=O)c1nnc(NC(=O)C2CC2)cc1Nc1cccc(-c2ccc(C(=O)NCc3cccn(C)c3=O)nn2)c1OC [Compound 8]
0.01 to 10 nM | 500 to 5000 nM | 500 to 5000 nM | 500 to 5000 nM |  |  |  |  | CNC(=O)c1nnc(NC(=O)C2CC2)cc1Nc1cccc(-c2ccc(C(=O)NCc3cccn(C)c3=O)cc2)c1OC [Compound 1]
0.01 to 10 nM | 500 to 5000 nM | 500 to 5000 nM | 5000 to 100000 nM |  |  |  |  | CNC(=O)c1nnc(NC(=O)C2CC2)cc1Nc1ccc(C)c(-c2cnn(C3CN(Cc4cc(C#N)ccn4)C3)c2)c1OC [Compound 68]
0.01 to 10 nM | 50 to 500 nM | 50 to 500 nM | 500 to 5000 nM |  |  |  |  | CNC(=O)c1nnc(NC(=O)C2CC2)cc1Nc1cccc(-c2cnn(C3CN(Cc4cccc(C#N)n4)C3)c2)c1OC [Compound 147]
 |  |  |  | 0.01 to 10 nM | 50 to 500 nM | 50 to 500 nM | 50 to 500 nM | COc1c(Nc2cc(NC(=O)C3CC3)nnc2C(N)=O)cccc1-c1ccc(C(=O)N(C)Cc2cc(C#N)ccn2)nc1 [Compound 220]
10 to 50 nM | 5000 to 100000 nM | 5000 to 100000 nM | 5000 to 100000 nM |  |  |  |  | CNC(=O)c1nnc(NC(=O)C2CC2)cc1Nc1cccc(-c2nnc(C3CN(Cc4ccccn4)C3)o2)c1OC [Compound 156]
0.01 to 10 nM | 500 to 5000 nM | 500 to 5000 nM | 5000 to 100000 nM |  |  |  |  | CNC(=O)c1nnc(NC(=O)C2CC2)cc1Nc1cccc(-c2ccc(C(=O)N(C)Cc3cccn(C)c3=O)cc2)c1OC [Compound 3, 6-(cyclopropanecarboxamido)-4-((2-methoxy-4′-(methyl((1-methyl-2-oxo-1,2-dihydropyridin-3-yl)methyl)carbamoyl)-[1,1′-biphenyl]-3-yl)amino)-N-methylpyridazine-3-carboxamide]
0.01 to 10 nM | 10 to 50 nM | 10 to 50 nM | 5000 to 100000 nM |  |  |  |  | CNC(=O)c1nnc(NC(=O)C2CC2)cc1Nc1ccc(C)c(-c2ccc(C(=O)N(C)Cc3cc(C#N)ccn3)nc2)c1OC [Compound 33]
0.01 to 10 nM | 50 to 500 nM | 500 to 5000 nM | 5000 to 100000 nM |  |  |  |  | CNC(=O)c1nnc(NC(=O)C2CC2)cc1Nc1cccc(-c2cnn(C3CN(Cc4cc(C#N)ccn4)C3)c2)c1OC [Compound 66]
0.01 to 10 nM | 500 to 5000 nM | 5000 to 100000 nM | 5000 to 100000 nM |  |  |  |  | CNC(=O)c1nnc(NC(=O)C2CC2)cc1Nc1cccc(-c2ccc(C(=O)N(C)Cc3nncs3)nc2)c1OC [Compound 146]
